This passage reports Activity results from ChEMBL document CHEMBL3045985, “Three-dimensional common-feature hypotheses for hypoglycemic flavonyl-2,4-thiazolidinedione derivatives” (2010).

Type in all cases: functional
Assay [1] deals with INS1. The assay is described as follows: Hypoglycemic activity in Rattus norvegicus (rat) INS1 cells assessed as glucose-mediated insulin release after 90 min (reference value: 62.96 +/- 5.68 to 69.70 +/- 4.98 %).
Assay [2] concerns INS1. The assay is described as follows: Hypoglycemic activity in Rattus norvegicus (rat) INS1 cells assessed as glucose-mediated insulin release at 1 ug/ml after 90 min (reference value: 62.96 +/- 5.68 to 69.70 +/- 4.98 %).
The subject of assay [3] is INS1. The assay is described as follows: Hypoglycemic activity in Rattus norvegicus (rat) INS1 cells assessed as glucose-mediated insulin release at 10 umol/l after 90 min (reference value: 62.96 +/- 5.68 to 69.70 +/- 4.98 %).
Assay [4] deals with INS1. Nature of the assay: Hypoglycemic activity in Rattus norvegicus (rat) INS1 cells assessed as insulin release at 5.6 mmol/l after 90 min (reference value: 62.96 +/- 5.68 to 69.70 +/- 4.98 %).

Consider `CCN1C(=O)S/C(=C/c2cccc(-c3cc(=O)c4ccccc4o3)c2)C1=O`, for which the Activity in the assay on INS1 [1] was found to be 299%.
The same measure, in the same setting: to `CN1C(=O)S/C(=C/c2cccc(-c3cc(=O)c4ccccc4o3)c2)C1=O` belongs 134.9%; to `CCN1C(=O)S/C(=C\c2ccc(-c3cc(=O)c4ccccc4o3)cc2)C1=O`, 117.9%; to `O=C1NC(=O)C(Cc2ccc(-c3cc(=O)c4ccccc4o3)cc2)S1` (stereo not drawn), 135.5%.
With `O=C1NC(=O)/C(=C\c2cccc(-c3cc(=O)c4ccccc4o3)c2)S1`, the Activity in the assay on INS1 [1] is listed as 79.76%.
The same measure, in the same setting: to `O=C1NC(=O)/C(=C/c2ccc(-c3cc(=O)c4ccccc4o3)cc2)N1` belongs 105.1%; to `CN1C(=O)/C(=C\c2cccc(-c3cc(=O)c4ccccc4o3)c2)N(C)C1=O`, 218.3%; to `O=C1NC(=S)N/C1=C/c1cccc(-c2cc(=O)c3ccccc3o2)c1`, 247.1%.
Same read-out and setting: to `CN1C(=O)/C(=C/c2ccc(-c3cc(=O)c4ccccc4o3)cc2)N(C)C1=S` belongs 114.3%; to `O=C1NC(=O)C(Cc2cccc(-c3cc(=O)c4ccccc4o3)c2)S1` (stereo not drawn), 69.89%.
The same measure, in the same setting: to `CN1C(=O)/C(=C/c2ccc(-c3cc(=O)c4ccccc4o3)cc2)N(C)C1=O` belongs 103.4%; to `O=C1NC(=O)/C(=C\c2cccc(-c3cc(=O)c4ccccc4o3)c2)N1`, 103.3%.
On to `CCN1C(=O)N/C(=C/c2cccc(-c3cc(=O)c4ccccc4o3)c2)C1=O`, for which the Activity in the assay with INS1 [1] came out at 167.8%.
Same read-out and setting: to `CCN1C(=O)/C(=C/c2ccc(-c3cc(=O)c4ccccc4o3)cc2)N(CC)C1=O` belongs 127.1%; to `CCN1C(=O)/C(=C\c2cccc(-c3cc(=O)c4ccccc4o3)c2)NC1=S`, 129.6%.
Regarding `CCN1C(=O)/C(=C/c2ccc(-c3cc(=O)c4ccccc4o3)cc2)N(CC)C1=S`, in the assay on INS1 [1], the Activity worked out at 96.27%.
For the compound `COc1ccc(Cl)cc1C(=O)NCCc1ccc(S(=O)(=O)NC(=O)NC2CCCCC2)cc1` [GLYBURIDE], the Activity with INS1 [2] is given as 210.4%.
For the compound `CN1C(=O)/C(=C\c2cccc(-c3cc(=O)c4ccccc4o3)c2)N(C)C1=S`, the Activity in the assay with INS1 [1] is given as 102.8%.
Turning to `CN(CCOc1ccc(CC2SC(=O)NC2=O)cc1)c1ccccn1` (stereo not drawn) [ROSIGLITAZONE], the Activity in the assay on INS1 [3] was determined as 116%.
Consider `O=C1NC(=O)/C(=C/c2ccc(-c3cc(=O)c4ccccc4o3)cc2)S1`, for which, in the assay on INS1 [1], the Activity was found to be 55.7%.
`OC[C@H]1OC(O)[C@H](O)[C@@H](O)[C@@H]1O` (stereo partly drawn) [DEXTROSE]: the Activity with INS1 [4] is recorded as 100%.
In the case of `CN1C(=O)S/C(=C\c2ccc(-c3cc(=O)c4ccccc4o3)cc2)C1=O`, the Activity in the assay with INS1 [1] came to 145.1%.
On the same count and under the same terms, to `O=C1NC(=S)N/C1=C\c1ccc(-c2cc(=O)c3ccccc3o2)cc1` belongs 130.3%.
